5 molecules from PMC7732531 (Frontiers in Pharmacology, 2020) can be followed below.

In general, Papp A→B refers to how fast a substance crosses the layer from the apical side. For orientation: Papp B→A means how fast a substance crosses the layer from the basolateral side. A word on the efflux ratio: it is the permeability from basolateral to apical divided by that in the opposite direction, in the common usage.

One data set is described as follows: in vitro. The following applies: 1 µM. The procedure:
The fraction of unbound YL-IPA08 in plasma and liver microsomes of rat and human, and brain homogenates of rat were determined utilizing Rapid Equilibrium Dialysis method ([Waters et al., 2008]). Rat brain homogenate was harvested in 4-fold volume (w/v) of PBS (pH 7.4). YL-IPA08 were spiked into fresh plasma, rat brain homogenate, liver microsomes (0.2 mg/ml protein) at concentration of 1 µM, and then dialyzed against […] on a shaker at 37°C for 4 h. To avoid the high non-specific binding of YL-IPA08, 0.01% Tween 80 was added in the incubation mixture. At the end of the incubation, protein was precipitated with acetonitrile (containing IS) and analyzed by LC-MS/MS. Phenacetin, quinidine, and warfarin were selected as positive control for the protein binding test.
The unbound fraction of YL-IPA08 in plasma or liver microsomes (ƒu,x) was calculated as shown in Eq. 2, and unbound fraction in the tissue homogenate (ƒu,b) was calculated according to Eq. 3. fu,x = Concbuffer chamber/Concplasma/liver microsomes chamber (2) fu,b = Concbuffer chamber/Concbrain homogenate chamber (3) The measured unbound fractions would be higher when a tissue is homogenized and diluted in buffer, the unbound fractions in an undiluted tissues (ƒu,brain) were calculated using Eq. 4 ([Kalvass and Maurer, 2002]). Undiluted fu,brain=1/D/((1/fu,brain homogenate)−1)+1/D (4) Where D represents the fold of dilution factor in brain homogenates. The free fraction of plasma and undiluted tissue is used in tissue-to-plasma exposure ratio calculation.

Data set [1] can be described thus: Transcellular transport experiment with Caco-2 cells. The following applies: human, Caco-2. As for the experimental part: (§1) Caco-2 cell lines were cultured (ATCC, Manassas, VA, United States) as described previously ([Liu et al., 2014]). Briefly, the cells were cultured at 37°C in 5% CO2 at 90% humidity in DMEM high glucose medium containing 20% fetal bovine serum, 1% nonessential amino acids, 100 U/ml penicillin and 1% streptomycin. For the efflux studies, the cells were seeded onto polyethylene terephthalate Millicell® cell culture inserts (0.4 μm pore size, 6.5 mm diameter, Millipore Corporation, Billerica, MA, United States) at a density of 1.7 × 10^5 cells/ml. The culture medium was refreshed on the day after seeding, after which it was refreshed every other day and on the day before the transport experiment. The cells were cultured for 20–22 days after seeding and then evaluated by measuring the transepithelial electrical resistance (TEER) (Millicell ERS®, Millipore Corporation) before experiments. […] Transepithelial permeability studies for YL-IPA08 (10 μM) were conducted from apical to basolateral side (A-B) and basolateral to apical side (B-A) for 120 min 0.2% BSA was included in the receiver solution to avoid nonspecific binding. At 60, 90, and 120 min, half volume of solution from receiver side was withdrawn, and same volume of HBSS was immediately added. Obtained samples were precipitated by adding 4× volumes of acetonitrile containing IS and centrifuged. The supernatants were stored in −20°C until further analysis by LC-MS/MS.
(§2) The in vitro t1/2 in liver microsomal incubation was calculated from the semi-log plot of percentage remaining vs. incubation time and intrinsic clearance (Clint, ml/min/mg protein) was calculated as Eq. 1: CLint=0.693/in vitro t1/2×volume of incubation (μl)/amount of microsomal protein in incubation (mg) (1) ([Suzuki et al., 2003]).Apparent permeability was obtained according to the equation Papp = (dQ/dt)/(A × C0), where dQ/dt is the mass transport rate (determined from the slope of the amount transported vs. time plot), A is the surface area of the monolayer, and C0 is the initial concentration of YL-IPA08 in the donor chamber ([Suzuki et al., 2003]). The efflux ratio was calculated for each study using the following equation: […] = Papp(B–A)/Papp(A–B), where Papp(B–A) and Papp(A–B) represent apparent drug permeability in the B to A and A to B direction, respectively. An efflux ratio greater than 2 indicates net efflux.

The subject of a further data set is Caco-2 cells. The description is as above. The note with it: for Concentration, A-B-A-90min / Concentration, A-B-B-90min: Caco-2, A→B; for Concentration, A-B-A-90min: apical (donor) side; for Concentration, A-B-B-90min: basolateral (receiver) side; for Concentration, B-A-A-90min / Concentration, B-A-B-90min: Caco-2, B→A; for Concentration, B-A-A-90min: apical (receiver) side; for Concentration, B-A-B-90min: basolateral (donor) side; for Concentration, DOA: Caco-2, apical donor at time 0; for Concentration, DOB: Caco-2, basolateral donor at time 0. As for the experimental part:
as §1, §2

As for `CC(=O)CC(c1ccccc1)c1c(O)c2ccccc2oc1=O` (stereo not drawn) [warfarin, reference compound], the “Protein biding (%)” value in the data set “in vitro” (rat, 4 h) is on record as 99.67 ± 0.08%.
As to `C[C@H]1O[C@@H](O[C@H]2[C@@H](O)C[C@H](O[C@H]3[C@@H](O)C[C@H](O[C@H]4CC[C@@]5(C)[C@H](CC[C@@H]6[C@@H]5C[C@@H](O)[C@]5(C)[C@@H](C7=CC(=O)OC7)CC[C@]65O)C4)O[C@@H]3C)O[C@@H]2C)C[C@H](O)[C@@H]1O` [Digoxin], in data set [1], the Papp A→B at 120 min, 10 μM was determined as 0.45 ± 0.17 ×10⁻⁶ cm/s; the Papp B→A at 120 min, 10 μM was 2.63 ± 0.7 ×10⁻⁶ cm/s; the efflux ratio at 120 min, 10 μM amounted to 6.25. Moreover, in the data set with Caco-2 cells, the “Concentration, A-B-A-90min” value was determined as 8.117 ± 0.473 µM; the “Concentration, A-B-B-90min” value was determined as 0.009 ± 0.002 µM; the “Concentration, B-A-A-90min” value is 0.203 ± 0.027 µM; the “Concentration, B-A-B-90min” value was determined as 8.867 ± 0.388 µM. Also, in the data set on Caco-2 cells, the “Concentration, DOA” value was found to be 11.683 ± 3.499 µM and the “Concentration, DOB” value turned out to be 12.667 ± 2.619 µM.
Regarding `C=C[C@H]1C[N@@]2CC[C@H]1C[C@@H]2[C@@H](O)c1ccnc2ccc(OC)cc12` [quinidine, reference compound], in the data set “in vitro” (Rat plasma, dialysis 4 h), the “Protein biding (%)” value is on record as 78.08 ± 4.49%.
On the same count and under the same terms, to `CCOc1ccc(NC(C)=O)cc1` [phenacetin, reference compound] belongs 58.48 ± 2.26%.
For the molecule `CC(C)NCC(O)COc1cccc2ccccc12` (stereo not drawn) [Propranolol], in data set [1], the apparent permeability from apical to basolateral (Papp A→B) at 120 min, 10 μM turned out to be 4.35 ± 2.06 ×10⁻⁶ cm/s; the Papp B→A at 120 min, 10 μM is 2.78 ± 0.09 ×10⁻⁶ cm/s; the efflux ratio at 120 min, 10 μM came to 0.63. In the data set on Caco-2 cells, the “Concentration, A-B-A-90min” value came to 4.608 ± 0.43 µM; the “Concentration, A-B-B-90min” value is 0.079 ± 0.026 µM; the “Concentration, B-A-A-90min” value worked out at 0.172 ± 0.019 µM; the “Concentration, B-A-B-90min” value was 7.267 ± 0.597 µM. In the data set with Caco-2 cells, the “Concentration, DOA” value was determined as 10.633 ± 2.369 µM and the “Concentration, DOB” value turned out to be 10.367 ± 1.118 µM.
